Assay [1] concerns the target T1, glutathione-S-transferase (GST) tagged LXRalpha LBD (ligand binding domain) (Homo sapiens, UniProt Q13133).
T1 construct: purchased Invitrogen pv4655
T1 sequence (Q13133 209-447 limits assumed): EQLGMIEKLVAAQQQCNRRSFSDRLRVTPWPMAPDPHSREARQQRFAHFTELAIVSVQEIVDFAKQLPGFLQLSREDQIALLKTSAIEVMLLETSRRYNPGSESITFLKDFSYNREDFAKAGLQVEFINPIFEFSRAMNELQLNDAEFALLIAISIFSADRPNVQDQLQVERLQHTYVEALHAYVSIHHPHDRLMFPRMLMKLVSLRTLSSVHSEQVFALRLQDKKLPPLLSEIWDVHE
Description: LanthaScreen TR-FRET Liver X Receptor Coactivator Assay, co-activator recruitment to LXRalpha LBD. The format is biochemical. The note with it: for Emax: read-out: LXR alpha Activity @ max dose (%); for LXR alpha IP (nM) / EC50: potency (Inflection Point, IP), co-activator recruitment to LXRalpha LBD, in relation to T0901317; for EC50: read-out: LXR alpha IP. The method, then:
(§1) Potency (Inflection Point, IP) and efficacy (Emax) are evaluated via compound-induced co-activator recruitment to glutathione-S-transferase (GST) tagged LXRbeta and LXRalpha LBD (ligand binding domain) proteins in relation to reference dual agonist compound T0901317 (N-(2,2,2-Trifluoroethyl)-N-[4-[2,2,2-trifluoro-1-hydroxy-1-(trifluoromethyl)ethyl] phenyl] benzenesulfonamide) using the LanthaScreen™ TR-FRET Liver X Receptor Coactivator Assays according to manufacturer's instructions (Invitrogen catalog number pv4658.pps and pv4655). While running the LanthaScreen™ TR-FRET Liver X Receptor Coactivator Assay, LXR alpha-LBD or LXR beta-LBD was added to ligand test compounds followed by addition of a mixture of a fluorescein-labelled coactivator peptide and terbium-conjugated anti-GST antibody. After an incubation period at room temperature, TR-FRET (time-resolved fluorescence resonance energy transfer) was measured using a filter-based instrument capable of TR-FRET, e.g. PerkinElmer Envision.
For orientation: In TR-FRET formats the signal depends on donor and acceptor labels being close together.

Assay [2] has as its target T2, glutathione-S-transferase (GST) tagged LXRbeta LBD (ligand binding domain) (Homo sapiens, UniProt P55055).
T2 construct: purchased Invitrogen pv4658.pps
T2 sequence (P55055 222-460 limits assumed): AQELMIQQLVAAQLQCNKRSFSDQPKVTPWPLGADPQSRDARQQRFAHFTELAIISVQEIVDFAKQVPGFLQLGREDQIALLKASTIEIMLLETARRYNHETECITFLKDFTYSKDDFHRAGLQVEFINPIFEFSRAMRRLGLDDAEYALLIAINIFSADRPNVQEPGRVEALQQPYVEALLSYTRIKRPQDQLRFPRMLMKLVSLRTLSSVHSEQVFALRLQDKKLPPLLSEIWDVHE
Nature of the assay: LanthaScreen TR-FRET Liver X Receptor Coactivator Assay, co-activator recruitment to LXRbeta LBD. The format is biochemical. The note with it: for Emax: read-out: LXR beta Activity @ max dose (%); for EC50: potency (Inflection Point, IP), co-activator recruitment to LXRbeta LBD, in relation to T0901317, read-out: LXR beta IP. As to the method:
as §1

[3] abbreviates: efficacy at max dose, in relation to reference dual agonist T0901317.

Structures are written as SMILES.

As to `CN(C)C(=O)c1ccc(N2CCC(OC3CCN(C(=O)C(F)(F)F)CC3)CC2)cc1Cl` [Example 2-29, 2-chloro-N,N-dimethyl-4-(4-{[1-(trifluoro-acetyl)piperidin-4-yl]oxy}piperidin-1-yl)benzamide], the Emax in assay [1] (setting [3]) was 25%; in assay [2] (setting [3]), 65%. Besides, the “LXR alpha IP (nM)” value in assay [1] is listed as “NO IP”. Moreover, the EC50 in assay [2] worked out at 3.79 µM.
Consider `CN(C)C(=O)c1ccc(N2CCC(CC3CCN(C(=O)C(O)(c4ccsc4)C(F)(F)F)CC3)CC2)cc1Cl` (stereo not shown) [Example 2-30, 2-chloro-N,N-dimethyl-4-(4-{[1-(3,3,3-trifluoro-2-hydroxy-2-thiophen-3-ylpropanoyl)piperidin-4-yl]methyl}piperidin-1-yl)benzamide], for which the Emax in assay [1] (setting [3]) was found to be 25%; in assay [2] (setting [3]) it was 64%. For the same compound, the figures for the EC50 in assay [1] and in assay [2] were 0.821 µM and 0.036 µM, respectively.
For `CC(C)C(O)(C(=O)N1CCC(CC2CCN(c3ccc(C(=O)N(C)C)c(Cl)c3)CC2)CC1)C(F)(F)F` (stereo not shown) [Example 2-31, 2-chloro-4-[4-({1-[2-hydroxy-3-methyl-2-(trifluoro-methyl)butanoyl]piperidin-4-yl}methyl)piperidin-1-yl]-N,N-dimethyl-benzamide], the Emax worked out at 24% in assay [1] (setting [3]) and 74% in assay [2] (setting [3]). Also, the EC50 in assay [1] turned out to be 4.45 µM; in assay [2], 0.784 µM.
In the case of `CCC(O)(C(=O)N1CCC(CC2CCN(c3ccc(C(=O)N(C)C)c(Cl)c3)CC2)CC1)c1ccccc1` (stereo not shown) [Example 2-32, 2-chloro-4-(4-{[1-(2-hydroxy-2-phenyl-butanoyl)piperidin-4-yl]methyl}piperidin-1-yl)-N,N-dimethyl-benzamide], the Emax in assay [1] (setting [3]) came to 19%; in assay [2] (setting [3]), 55%. Besides, the EC50 worked out at 1.42 µM in assay [1] and 0.072 µM in assay [2].
`CN(C)C(=O)c1ccc(N2CCC(CC3CCN(C(=O)[C@@](O)(c4cccc(C(F)(F)F)c4)C(F)(F)F)CC3)CC2)cc1Cl` [Example 2-33, 2-chloro-N,N-dimethyl-4-{4-[(1-{(2S)-3,3,3-trifluoro-2-hydroxy-2-[3-(trifluoromethyl)phenyl]propanoyl}piperidin-4-yl)methyl]piperidin-1-yl}benzamide]: the Emax in assay [1] (setting [3]) turned out to be 5%; in assay [2] (setting [3]), 75%. Also, the “LXR alpha IP (nM)” value in assay [1] was “NO IP”. The EC50 in assay [2] worked out at 0.722 µM.
In the case of `COc1cccc([C@@](O)(C(=O)N2CCC(CC3CCN(c4ccc(C(=O)N(C)C)c(Cl)c4)CC3)CC2)C(F)(F)F)c1` [Example 2-35, 2-chloro-N,N-dimethyl-4-[4-({1-[(2R)-3,3,3-trifluoro-2-hydroxy-2-(3-methoxyphenyl)propanoyl]piperidin-4-yl}methyl)piperidin-1-yl]benzamide], the Emax is 6% in assay [1] (setting [3]) and 44% in assay [2] (setting [3]). Moreover, the “LXR alpha IP (nM)” value in assay [1] was “NO IP”. Also, the EC50 in assay [2] amounted to 0.008 µM.
For `CN(C)C(=O)c1ccc(N2CCC(CC3CCN(C(=O)C(O)(Cc4ccccc4)C(F)(F)F)CC3)CC2)cc1Cl` (stereo not shown) [Example 2-36, 4-(4-{[1-(2-benzyl-3,3,3-trifluoro-2-hydroxy-propanoyl)piperidin-4-yl]methyl}piperidin-1-yl)-2-chloro-N,N-dimethyl-benzamide], the figures for the Emax in assay [1] (setting [3]) and in assay [2] (setting [3]) were 43% and 126%, respectively. The EC50 amounted to 1.06 µM in assay [1] and 0.11 µM in assay [2].
The matching figures for `CN(C)C(=O)c1ccc(N2CCC(CC3CCN(C(=O)C(O)(c4cccs4)C(F)(F)F)CC3)CC2)cc1Cl` (stereo not shown) [Example 2-37, 2-chloro-N,N-dimethyl-4-(4-{[1-(3,3,3-trifluoro-2-hydroxy-2-thiophen-2-ylpropanoyl)piperidin-4-yl]methyl}piperidin-1-yl)benzamide]: 33%, 73%, 0.62 µM and 0.029 µM.
In the case of `Cc1ccsc1C(O)(C(=O)N1CCC(CC2CCN(c3ccc(C(=O)N(C)C)c(Cl)c3)CC2)CC1)C(F)(F)F` (stereo not shown) [Example 2-38, 2-chloro-N,N-dimethyl-4-[4-({1-[3,3,3-trifluoro-2-hydroxy-2-(3-methyl-thiophen-2-yl)propanoyl]piperidin-4-yl}methyl)piperidin-1-yl]benzamide], the Emax amounted to 15% in assay [1] (setting [3]) and 67% in assay [2] (setting [3]). Besides, the EC50 in assay [1] worked out at 0.575 µM; in assay [2] it was 0.049 µM.
On to `CCc1cccc(C(O)(C(=O)N2CCC(CC3CCN(c4ccc(C(=O)N(C)C)c(Cl)c4)CC3)CC2)C(F)(F)F)c1` (stereo not shown) [Example 2-39, 2-chloro-4-[4-({1-[2-(3-ethylphenyl)-3,3,3-trifluoro-2-hydroxy-propanoyl]piperidin-4-yl}methyl)piperidin-1-yl]-N,N-dimethyl-benzamide], for which the Emax in assay [1] (setting [3]) was found to be 2%; in assay [2] (setting [3]), 30%. The EC50 in assay [1] turned out to be 1.78 µM; in assay [2] it was 0.036 µM.
As to `CN(C)C(=O)c1ccc(N2CCC(CC3CCN(C(=O)C(O)(c4ccnc(C(F)(F)F)c4)C(F)(F)F)CC3)CC2)cc1Cl` (stereo not shown) [Example 2-40, 2-chloro-N,N-dimethyl-4-{4-[(1-{3,3,3-trifluoro-2-hydroxy-2-[2-(trifluoromethyl)pyridin-4-yl]propanoyl}piperidin-4-yl)methyl]piperidin-1-yl}benzamide], the Emax in assay [1] (setting [3]) came out at 9%; in assay [2] (setting [3]), 34%. In addition, the “LXR alpha IP (nM)” value in assay [1] is “NO IP”. Moreover, in assay [2], the EC50 was determined as 0.072 µM.
On to `COc1cccc(C(O)(C(=O)N2CCC(CC3CCN(c4ccc(C(=O)N(C)C)c(Cl)c4)CC3)CC2)C(F)(F)F)c1F` (stereo not shown) [Example 2-41, 2-chloro-N,N-dimethyl-4-[4-({1-[3,3,3-trifluoro-2-(2-fluoro-3-methoxyphenyl)-2-hydroxy-propanoyl]piperidin-4-yl}methyl)piperidin-1-yl]benzamide], for which the values for the Emax in assay [1] (setting [3]) and in assay [2] (setting [3]) were 10% and 63%, respectively. The “LXR alpha IP (nM)” value in assay [1] was “NO IP”. Moreover, in assay [2], the EC50 was 0.014 µM.
As to `Cc1cc(F)cc(C(O)(C(=O)N2CCC(CC3CCN(c4ccc(C(=O)N(C)C)c(Cl)c4)CC3)CC2)C(F)(F)F)c1` (stereo not shown) [Example 2-42, 2-chloro-N,N-dimethyl-4-[4-({1-[3,3,3-trifluoro-2-(3-fluoro-5-methylphenyl)-2-hydroxy-propanoyl]piperidin-4-yl}methyl)piperidin-1-yl]benzamide], the figures for the Emax in assay [1] (setting [3]) and in assay [2] (setting [3]) were 25% and 76%, respectively. The EC50 in assay [1] worked out at 0.162 µM; in assay [2], 0.012 µM.
Consider `CN(C)C(=O)c1ccc(N2CCC(CC3CCN(C(=O)[C@](O)(c4ccccc4)C(F)(F)F)CC3)CC2)cc1Cl` [Example 2-43, 2-chloro-N,N-dimethyl-4-[4-({1-[(2R)-3,3,3-trifluoro-2-hydroxy-2-phenyl-propanoyl]piperidin-4-yl}methyl)piperidin-1-yl]benzamide], for which the “LXR alpha Activity @ max dose (%)” value in assay [1] (setting [3]) is listed as 16%. Moreover, the “LXR beta Activity @ max dose (%)” value in assay [2] (setting [3]) stood at 75%.
With `CN(C)C(=O)c1ccc(N2CCC(CC3(C)CCN(C(=O)[C@](O)(c4ccccc4)C(F)(F)F)CC3)CC2)cc1Cl` [Example 2-44, 2-chloro-N,N-dimethyl-4-[4-({4-methyl-1-[(2R)-3,3,3-trifluoro-2-hydroxy-2-phenyl-propanoyl]piperidin-4-yl}methyl)piperidin-1-yl]benzamide], the Emax was found to be 20% in assay [1] (setting [3]) and 37% in assay [2] (setting [3]). Moreover, the EC50 in assay [1] turned out to be 0.032 µM; in assay [2], 0.001 µM.

Values taken from patent publication US10752587B2, “Homobispiperidinyl derivatives as liver X receptor beta agonists, compositions and their use” (Merck Sharp & Dohme Corp., priority 2015, dated 2020).
